Measurements: patent US7468384B2, “Microbicidal composition” (Rohm and Haas Company, priority 2004, dated 2008)

What was measured:
Type in all cases: cell-based
[1] = tested on: Aspergillus niger (A. niger—ATCC 16404); test: Synergy test, microtiter plate high resolution MIC assay, mold; set-up: key to SI (calculated synergy index) / SI (synergy index): SI = Qa/QA + Qb/QB (mixture vs. alone end-point concentrations); settings: A. niger 16404, PDB
From the text: (§1) One measure of synergism is the industrially accepted method described by Kull, F. C.; Eisman, P. C.; Sylwestrowicz, H. D. and Mayer, R. L., in Applied Microbiology 9:538-541 (1961), using the ratio determined by the formula: Qa/QA+Qb/QB=Synergy Index (“SI”) wherein: • QA=concentration of compound A (first component) in ppm, acting alone, which produced an end point (MIC of Compound A). • Qa=concentration of compound A in ppm, in the mixture, which produced an end point. • QB=concentration of compound B (second component) in ppm, acting alone, which produced an end point (MIC of Compound B). • Qb=concentration of compound B in ppm, in the mixture, which produced an end point.
(§2) When the sum of Qa/QA and Qb/QB is greater than one, antagonism is indicated. […] The lower the SI, the greater the synergy shown by that particular mixture. The minimum inhibitory concentration (MIC) of a microbicide is the lowest concentration tested under a specific set of conditions that prevents the growth of added microorganisms.
(§3) Synergy tests were conducted using standard microtiter plate assays with media designed for optimal growth of the test microorganism. Soybean Casein Digest Broth (Tryptic Soy Broth, TSB medium) or minimal salt medium supplemented with 0.2% glucose and 0.1% yeast extract (M9GY medium) was used for testing bacteria; Potato Dextrose Broth (PDB medium) was used for testing yeast and mold. In this method, a wide range of combinations of microbicides was tested by conducting high resolution MIC assays in the presence of various concentrations of MI. High resolution MICs were determined by adding varying amounts of microbicide to one column of a microtitre plate and doing subsequent ten-fold dilutions using an automated liquid handling system to obtain a series of endpoints ranging from 2 ppm to 10,000 ppm active ingredient.
(§4) For MI combinations, the synergy of the combinations of the present invention was determined against two bacteria, Escherichia coli (E. coli—ATCC #8739) or Pseudomonas aeruginosa (P. aeruginosa—ATCC #15442), a yeast, Candida albicans (C. albicans—ATCC 10231), and a mold, Aspergillus niger (A. niger—ATCC 16404). The bacteria were used at a concentration of about 5×10^6 bacteria per mL and the yeast and mold at 5×10^5 fungi per mL. These microorganisms are representative of natural contaminants in many consumer and industrial applications. […] (bacteria).
(§5) For BIT combinations, the synergy of the combinations of the present invention was determined against a bacterium, Pseudomonas aeruginosa (P. aeruginosa—ATCC #15442), a yeast, Candida albicans (C. albicans—ATCC 10231), and a mold, Aspergillus niger (A. niger—ATCC 16404). The bacteria were used at a concentration of about 5×10^6 bacteria per mL and the yeast and mold at 5×10^5 fungi per mL. These microorganisms are representative of natural contaminants in many consumer and industrial applications. […] (yeast and mold) or 30° C. (bacteria).

[2] = tested on: Candida albicans (C. albicans—ATCC 10231); test: Synergy test, microtiter plate high resolution MIC assay, yeast; settings: C. albicans 10231, PDB, 24 hours
From the text: as §1, §2, §3, §4, §5

[3] = tested on: Pseudomonas aeruginosa (P. aeruginosa—ATCC #15442); test: Synergy test, microtiter plate high resolution MIC assay, bacterium; set-up: key to SI (calculated synergy index) / SI (synergy index): SI = Qa/QA + Qb/QB (mixture vs. alone end-point concentrations); settings: for SI (calculated synergy index) / Qb: end-point activity (MIC) of second component in the mixture (alone, QB, where Qa = 0): Table 5; for Qb: end-point activity (MIC) of second component in the mixture (alone, QB, where Qa = 0): B = Linoleamidopropyl PG-dimonium chloride phosphate
From the text: as §1, §2, §3, §4, §5

[4] = tested on: Escherichia coli (E. coli—ATCC #8739); test: as above; settings: E. coli 8739, M9GY, 24 hours
From the text: as §1, §2
as §3, with “In this method, a wide range of combinations of microbicides was tested by conducting high resolution MIC assays in the presence of various concentrations of MI.” left out
as §4

S. aureus 6538 = test: as above; settings: S. aureus 6538, TSB, 48 hours
From the text: as §1, §2, §3

[5] = P. aeruginosa 15442, M9GY, 48 hours
[6] = P. aeruginosa 15442, TSB, 48 hours
[7] = Table 5, B = Linoleamidopropyl PG-dimonium chloride phosphate

OCC(O)COc1ccc(Cl)cc1 (stereo not drawn) [Chlorphenesin]
MIC of component acting alone (QA / QB) ([1]; 4 days): 2000 ppm
Qb ([1]; chlorphenesin concentration giving end point (MIC), alone or mixed with BIT, 1 week): 2000 ppm
SI ([1]; synergy index BIT + chlorphenesin, 1 week): 1.00
MIC of component acting alone (QA / QB) [2]: 2000 ppm
MIC of component acting alone (QA / QB) [3, 5]: 4000 ppm
MIC of component acting alone (QA / QB) [3, 6]: 8000 ppm
Qb ([3]; chlorphenesin concentration giving end point (MIC), alone or mixed with BIT, P. aeruginosa 15442, M9GY, 72 hours): 8000 ppm
SI ([3]; synergy index BIT + chlorphenesin, P. aeruginosa 15442, M9GY, 72 hours): 1.00
MIC of component acting alone (QA / QB) [4]: 2000 ppm
MIC of component acting alone (QA / QB) (S. aureus 6538): 5000 ppm

Linoleamidopropyl PG-dimonium chloride phosphate
SI (calculated synergy index) ([1]; Table 5, 7 days): 1.00
Qb: end-point activity (MIC) of second component in the mixture (alone, QB, where Qa = 0) ([1]; Table 5, 7 days, B = Linoleamidopropyl PG-dimonium chloride phosphate): 6000 ppm
SI (synergy index) ([1]; Table 21, 4 days): 1.00
Qb (second component at end point, MIC) ([1]; Table 21, Linoleamidopropyl PG-dimonium chloride phosphate with BIT, 4 days, alone where Qa = 0): 3000 ppm
SI (calculated synergy index) ([2]; Table 5): 1.00
Qb: end-point activity (MIC) of second component in the mixture (alone, QB, where Qa = 0) [2, 7]: 8000 ppm
SI (calculated synergy index) [3, 5]: 1.00
Qb: end-point activity (MIC) of second component in the mixture (alone, QB, where Qa = 0) [3, 5]: 10000 ppm
SI (calculated synergy index) [3, 6]: 1.00
Qb: end-point activity (MIC) of second component in the mixture (alone, QB, where Qa = 0) [3, 6]: 10000 ppm
Qb (second component at end point, MIC) ([3]; Table 21, Linoleamidopropyl PG-dimonium chloride phosphate with BIT, P. aeruginosa 15442, M9GY, 48 hours, alone where Qa = 0): 10000 ppm
SI (synergy index) ([3]; Table 21, P. aeruginosa 15442, M9GY, 48 hours): 1.00
SI (calculated synergy index) (S. aureus 6538; Table 5): 1.00
Qb: end-point activity (MIC) of second component in the mixture (alone, QB, where Qa = 0) (S. aureus 6538; [7]): 40 ppm
